# Assay results published in US20100210649A1, “PYRIDAZINONES AND FURAN-CONTAINING COMPOUNDS” (Sloan-Kettering Institute for Cancer Research, priority 2006, published 2010).
# Like-named read-outs stand apart in the source and are kept apart here.
# Columns and labels:
# [1] = system: A549; experiment: Dose response study (Alamar Blue), A549; format: cell-based; conditions: Homo sapiens; A549; 12 point doubling dilution 10 uM to 5 nM; 48 h treatment, alamar blue additional 48 h; read-out: IC50 A549
# Description: (§1) Dose response studies against 34 compounds from the pyridazinone and phenylfuran-carboxamide class were conducted. […] In addition, Tarceva was included in these dose response studies.
# (§2) The dose response studies were done with the following standard procedure. First, the cells were counted and dispensed at 250 cells/well into 384-well microplates with compound. The cells were incubated for 48 hours at 37 C to complete treatment, and then alamar blue was added for an additional 48 hours. Finally, alamar blue reduction was measured and the data was loaded into ORIS, our data screening acquisition platform.
# [2] = system: HPL1D (human peripheral lung epithelial) cell line; experiment: Cell proliferation / dose response (Alamar Blue), HPL1D; format: cell-based; conditions: HPL1D, 12 point doubling dilution 10 uM to 5 nM, 48 h treatment, alamar blue additional 48 h, read-out: IC50 HPL1D
# Description: WI-38: human lung fibroblast cell line. […] WT: wildtype; WT*: over-expressed wildtype. Dose response studies against 34 compounds from the pyridazinone and phenylfuran-carboxamide class were conducted. […] In addition, Tarceva was included in these dose response studies. The dose response studies were done with the following standard procedure. […] The cells were incubated for 48 hours at 37 C to complete treatment, and then alamar blue was added for an additional 48 hours. Finally, alamar blue reduction was measured and the data was loaded into ORIS, our data screening acquisition platform.
# [3] = in vitro; conditions: human
# [4] = system: H358; experiment: Non Small Cell Lung Cancer proliferation assay (Alamar Blue reduction), H358; format: cell-based; conditions: Homo sapiens, NCI-H358
# In short: (§3)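 Compounds are tested at 1% DMSO final concentration against adherent NSCLC cells for 48 h at 37° C, with cytotoxicity measured by Alamar Blue reduction after a further 48 h incubation.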
# [5] = system: H2122; experiment: Dose response study (Alamar Blue), H2122; format: cell-based; conditions: Homo sapiens, NCI-H2122; H2122; 12 point doubling dilution 10 uM to 5 nM; 48 h treatment, alamar blue additional 48 h; read-out: IC50 H2122
# Description: as §1, §2
# [6] = system: H3255; experiment: Non Small Cell Lung Cancer proliferation assay (Alamar Blue reduction), H3255; format: cell-based, human; conditions: Homo sapiens
# In short: as §3
# [7] = system: H1650; experiment: Non Small Cell Lung Cancer proliferation assay (Alamar Blue reduction), H1650; format: cell-based, human; conditions: Homo sapiens
# In short: as §3
# [8] = system: H2030; experiment: Non Small Cell Lung Cancer proliferation assay (Alamar Blue reduction), H2030; format: cell-based, human; conditions: Homo sapiens
# In short: as §3
# [9] = system: H1975; experiment: Non Small Cell Lung Cancer proliferation assay (Alamar Blue reduction), H1975; format: cell-based, human; conditions: Homo sapiens
# In short: as §3
# [10] = system: H820; experiment: Dose response study (Alamar Blue), H820; format: cell-based; conditions: Homo sapiens, NCI-H820; H820; 12 point doubling dilution 10 uM to 5 nM; 48 h treatment, alamar blue additional 48 h; read-out: IC50 H820
# Description: as §1, §2
# [11] = system: PC9; experiment: Dose response study (Alamar Blue), PC9; format: cell-based; conditions: Homo sapiens, PC-9; PC9; 12 point doubling dilution 10 uM to 5 nM; 48 h treatment, alamar blue additional 48 h; read-out: IC50 PC9
# Description: as §1, §2
# [12] = H358, 12 point doubling dilution 10 uM to 5 nM, 48 h treatment, alamar blue additional 48 h, read-out: IC50 H358
# [13] = read-out: Dose Response (uM) H358
# [14] = NCI-H3255, 48 h, H3255, 12 point doubling dilution 10 uM to 5 nM, 48 h treatment, alamar blue additional 48 h, read-out: IC50 H3255
# [15] = NCI-H3255, dose response 10 M to 5 nM, IC50, read-out: Dose Response (uM) H3255
# [16] = NCI-H1650, 48 h, H1650, 12 point doubling dilution 10 uM to 5 nM, 48 h treatment, alamar blue additional 48 h, read-out: IC50 H1650
# [17] = NCI-H1650, dose response 10 M to 5 nM, IC50, read-out: Dose Response (uM) H1650
# [18] = NCI-H2030, 48 h, H2030, 12 point doubling dilution 10 uM to 5 nM, 48 h treatment, alamar blue additional 48 h, read-out: IC50 H2030
# [19] = NCI-H2030, dose response 10 M to 5 nM, IC50, read-out: Dose Response (uM) H2030
# [20] = NCI-H1975, 48 h, H1975, 12 point doubling dilution 10 uM to 5 nM, 48 h treatment, alamar blue additional 48 h, read-out: IC50 H1975
# [21] = NCI-H1975, dose response 10 M to 5 nM, IC50, read-out: Dose Response (uM) H1975
Compound,IC50 [1],IC50 [2],IC50 at 72 h ([3]; CytoTox (uM) NHBE),IC50 at 72 h ([3]; CytoTox (uM) WI-38),"IC50 [4, 12]","IC50 [4, 13]",IC50 [5],"IC50 [6, 14]","IC50 [6, 15]","IC50 [7, 16]","IC50 [7, 17]","IC50 [8, 18]","IC50 [8, 19]","IC50 [9, 20]","IC50 [9, 21]",IC50 [10],IC50 [11]
O=c1c(Cl)c(Cl)cnn1-c1ccc(C(F)(F)F)cc1 [compound 267060],5.31 µM,0.56 µM,3.44 µM,> 10 µM,1.39 µM,0.29 µM,6 µM,2.29 µM,2.27 µM,3.95 µM,3.92 µM,1.11 µM,1.09 µM,1.27 µM,0.69 µM,1.48 µM,3.49 µM
COc1cccc(-n2ncc(Cl)c(Cl)c2=O)c1 [compound 267061],1.76 µM,0.29 µM,1.7 µM,3.91 µM,0.46 µM,0.24 µM,1.2 µM,1.2 µM,1.34 µM,1.96 µM,3.52 µM,0.36 µM,0.72 µM,0.31 µM,0.37 µM,0.26 µM,0.85 µM
CCc1cccc(-n2ncc(Cl)c(Cl)c2=O)c1 [compound 267062],2.81 µM,0.38 µM,1.85 µM,6.44 µM,0.66 µM,0.24 µM,2.55 µM,1.51 µM,1.5 µM,1.91 µM,2.48 µM,0.54 µM,0.72 µM,0.47 µM,0.46 µM,0.45 µM,1.51 µM
CCCCc1cccc(-n2ncc(Cl)c(Cl)c2=O)c1 [compound 267063],> 10 µM,7.04 µM,5.34 µM,> 10 µM,6.66 µM,0.76 µM,> 10 µM,8.35 µM,3.89 µM,> 10 µM,5.82 µM,6.43 µM,2.75 µM,6.57 µM,1.93 µM,6.24 µM,8.89 µM
Cc1cc(-n2ncc(Cl)c(Cl)c2=O)ccc1Br [compound 267064],> 10 µM,4.72 µM,4.04 µM,> 10 µM,7.65 µM,0.47 µM,> 10 µM,> 10 µM,2.47 µM,> 10 µM,2.83 µM,7.8 µM,0.88 µM,7.58 µM,0.71 µM,6.72 µM,> 10 µM
Cc1cc(-n2ncc(Cl)c(Cl)c2=O)ccc1Cl [compound 267065],> 10 µM,6.66 µM,> 10 µM,> 10 µM,> 10 µM,1.24 µM,> 10 µM,> 10 µM,> 10 µM,> 10 µM,> 10 µM,> 10 µM,> 10 µM,> 10 µM,1.89 µM,> 10 µM,> 10 µM
O=c1c(Cl)c(Cl)cnn1-c1ccc2c(c1)CCC2 [compound 267066],7.52 µM,1.66 µM,1.74 µM,5.37 µM,2.81 µM,0.42 µM,8.72 µM,4.61 µM,1.35 µM,> 10 µM,1.69 µM,2.34 µM,1.41 µM,2.23 µM,0.19 µM,2.8 µM,5.87 µM
Cc1nc2cc(-n3ncc(Cl)c(Cl)c3=O)ccc2s1 [compound 267067],> 10 µM,7.01 µM,> 10 µM,> 10 µM,> 10 µM,1.38 µM,> 10 µM,> 10 µM,3.64 µM,> 10 µM,4.47 µM,9.19 µM,3.04 µM,> 10 µM,0.45 µM,8.25 µM,> 10 µM
O=c1c(Cl)c(Cl)cnn1-c1ccc2c(c1)OCCO2 [compound 267068],1.93 µM,0.42 µM,1.56 µM,3.96 µM,0.78 µM,0.43 µM,1.59 µM,1.23 µM,1.2 µM,2.26 µM,2.33 µM,0.47 µM,1.23 µM,0.37 µM,0.25 µM,0.32 µM,0.88 µM
O=c1c(Cl)c(Cl)cnn1Cc1ccccc1 [compound 267069],7.39 µM,5.25 µM,7.32 µM,> 10 µM,6.66 µM,4.76 µM,9.04 µM,> 10 µM,6.5 µM,> 10 µM,> 10 µM,4.01 µM,6.83 µM,3.6 µM,2.16 µM,2.57 µM,6.21 µM
Cc1ccc(-n2ncc(Cl)c(Cl)c2=O)cc1Cl [compound 267070],> 10 µM,> 10 µM,> 10 µM,> 10 µM,> 10 µM,0.97 µM,> 10 µM,> 10 µM,3.1 µM,> 10 µM,> 10 µM,> 10 µM,5.18 µM,> 10 µM,0.91 µM,> 10 µM,> 10 µM
Cc1cccc(-n2ncc(Br)c(Br)c2=O)c1 [compound 267071],1.62 µM,0.24 µM,1.61 µM,2.61 µM,0.4 µM,0.21 µM,1.26 µM,0.76 µM,0.81 µM,1.1 µM,0.74 µM,0.37 µM,1.22 µM,0.36 µM,0.22 µM,0.27 µM,0.86 µM
O=c1c(Br)c(Br)cnn1-c1cccc(C(F)(F)F)c1 [compound 267072],3.42 µM,0.51 µM,1.43 µM,2.17 µM,0.85 µM,0.15 µM,4.61 µM,1.64 µM,1 µM,2.09 µM,0.54 µM,0.85 µM,,0.93 µM,0.2 µM,0.82 µM,2.59 µM
O=c1c(Br)c(Br)cnn1-c1ccccn1 [compound 267073],0.31 µM,0.11 µM,1.33 µM,0.89 µM,0.14 µM,0.07 µM,0.78 µM,0.45 µM,0.66 µM,0.79 µM,0.8 µM,0.12 µM,0.76 µM,0.16 µM,0.09 µM,0.1 µM,0.42 µM
